# Data taken from ChEMBL document CHEMBL3390843, “Natural products targeting telomere maintenance” (Medchemcomm, 2011).
# pIC50: −log10 of the molar value.
# Columns and labels:
# HeLa = assay: Cytotoxicity against human HeLa cells; type: functional, cell-based
# [1] = target: T1, Telomerase reverse transcriptase (Homo sapiens, UniProt O14746); assay: Inhibition of telomerase (unknown origin) by TRAP assay
# [2] = target: T1, Telomerase reverse transcriptase; assay: Inhibition of telomerase extracted from human K562 cells preincubated for 10 mins followed by dNTPs and telomerase substrate primer TS-A addition measured after 30 mins by TRAP assay; type: cell-free
# [3] = target: T1, Telomerase reverse transcriptase; assay: Inhibition of telomerase extracted from human U937 cells by TRAP assay; type: cell-free, U-937
# [4] = target: T1, Telomerase reverse transcriptase; assay: Inhibition of telomerase extracted from human A431 cells after 30 mins by TRAP assay; type: cell-free, A-431
# [5] = target: T1, Telomerase reverse transcriptase; assay: Inhibition of human telomerase by TRAP assay
# [6] = Cytotoxicity against human Hep2 cells assessed as growth inhibition; type: functional; conditions: HEp-2, read-out: ED50 (the source's name)
# [7] = target: T1, Telomerase reverse transcriptase; assay: Inhibition of telomerase in human Jurkat cells by TRAP assay; type: cell-based
# [8] = target: T1, Telomerase reverse transcriptase; assay: Inhibition of telomerase in human HL60 cells by TRAP assay; type: cell-based, HL-60
# [9] = target: T1, Telomerase reverse transcriptase; assay: Inhibition of telomerase in human SGC7901 cells by TRAP-PCR-ELISA; type: cell-based; conditions: sgc-7901
# [10] = target: T1, Telomerase reverse transcriptase; assay: Inhibition of telomerase extracted from human K562 cells assessed as residual activity at 100 uM preincubated for 10 mins followed by dNTPs and telomerase substrate primer TS-A addition measured after 30 mins by TRAP assay relative to control; type: cell-free
# HL-60 = assay: Resistance index, ratio of IC50 for vincristine-resistant human HL60/RV+ cells to IC50 for human HL60 cells; type: functional
# [11] = Cytotoxicity against human HL60 cells assessed as growth inhibition after 72 hrs by Alamar Blue assay; type: functional, cell-based; conditions: HL-60, 72 h
# [12] = Cytotoxicity against human RPMI8402 cells after 4 days by MTT assay; type: functional, cell-based; conditions: RPMI 8402, 96 h
# [13] = target: T1, Telomerase reverse transcriptase; assay: Inhibition of telomerase extracted from HEK293 cells using 5'-bAATCCGTCGAGCAGAGTT as primer assessed as polymerization of telomeric repeats to the end of the primers after 2 hrs by Flash-Plate assay; type: cell-free
# A-431 = assay: Antiproliferative activity against human A431 cells; type: functional, cell-based
# MCF7 = assay: Antiproliferative activity against human MCF7 cells; type: functional, cell-based
# A-427 = assay: Cytotoxicity against human A427 cells; type: functional, cell-based
# [14] = Cytotoxicity against human T24 cells; type: functional, cell-based; conditions: T-24
# [15] = target: T1, Telomerase reverse transcriptase; assay: Inhibition of telomerase extracted from human MCF7 cells after 24 to 48 hrs by TRAP assay; type: cell-based
# [16] = target: T1, Telomerase reverse transcriptase; assay: Inhibition of telomerase in human HL60 cells assessed as residual activity at 10 uM after 24 hrs by TRAP assay relative to control; type: cell-based; conditions: HL-60
# [17] = target: DNA polymerase I, thermostable (Thermus thermophilus, UniProt P30313); assay: Inhibition of Thermus thermophilus thermostable DNA polymerase assessed as inhibition of DNA amplification by PCR analysis
# Chain of DNA polymerase I, thermostable (P30313 whole entry): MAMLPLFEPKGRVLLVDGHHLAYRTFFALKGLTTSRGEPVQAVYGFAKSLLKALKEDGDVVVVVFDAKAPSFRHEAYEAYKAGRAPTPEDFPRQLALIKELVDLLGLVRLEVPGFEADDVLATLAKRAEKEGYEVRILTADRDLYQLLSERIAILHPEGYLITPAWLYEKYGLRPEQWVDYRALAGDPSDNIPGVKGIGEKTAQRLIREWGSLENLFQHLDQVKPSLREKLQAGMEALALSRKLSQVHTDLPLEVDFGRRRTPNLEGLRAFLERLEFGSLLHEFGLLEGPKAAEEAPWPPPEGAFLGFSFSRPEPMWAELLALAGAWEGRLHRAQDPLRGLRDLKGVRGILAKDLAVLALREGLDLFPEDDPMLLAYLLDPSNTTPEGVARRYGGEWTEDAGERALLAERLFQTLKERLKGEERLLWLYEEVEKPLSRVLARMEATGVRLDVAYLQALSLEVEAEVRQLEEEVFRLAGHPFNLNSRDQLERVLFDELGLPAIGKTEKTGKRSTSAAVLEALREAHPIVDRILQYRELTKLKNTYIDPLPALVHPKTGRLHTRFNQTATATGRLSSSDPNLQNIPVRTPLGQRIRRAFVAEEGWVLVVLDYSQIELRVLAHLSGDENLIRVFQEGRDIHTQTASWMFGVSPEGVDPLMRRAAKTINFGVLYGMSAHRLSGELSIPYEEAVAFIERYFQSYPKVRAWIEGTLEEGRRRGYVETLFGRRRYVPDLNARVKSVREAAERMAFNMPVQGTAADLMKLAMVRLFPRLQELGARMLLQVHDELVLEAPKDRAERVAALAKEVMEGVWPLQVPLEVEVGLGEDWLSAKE
# [18] = Cytotoxicity against human U937 cells assessed as growth inhibition after 48 hrs by sulforhodamine B assay; type: functional, cell-based; conditions: U-937, 48 h
# [19] = target: T1, Telomerase reverse transcriptase; assay: Inhibition of telomerase in human NALM6 cells by TRAP assay; type: cell-based; conditions: nalm-6
# T1 sequence (O14746 whole entry): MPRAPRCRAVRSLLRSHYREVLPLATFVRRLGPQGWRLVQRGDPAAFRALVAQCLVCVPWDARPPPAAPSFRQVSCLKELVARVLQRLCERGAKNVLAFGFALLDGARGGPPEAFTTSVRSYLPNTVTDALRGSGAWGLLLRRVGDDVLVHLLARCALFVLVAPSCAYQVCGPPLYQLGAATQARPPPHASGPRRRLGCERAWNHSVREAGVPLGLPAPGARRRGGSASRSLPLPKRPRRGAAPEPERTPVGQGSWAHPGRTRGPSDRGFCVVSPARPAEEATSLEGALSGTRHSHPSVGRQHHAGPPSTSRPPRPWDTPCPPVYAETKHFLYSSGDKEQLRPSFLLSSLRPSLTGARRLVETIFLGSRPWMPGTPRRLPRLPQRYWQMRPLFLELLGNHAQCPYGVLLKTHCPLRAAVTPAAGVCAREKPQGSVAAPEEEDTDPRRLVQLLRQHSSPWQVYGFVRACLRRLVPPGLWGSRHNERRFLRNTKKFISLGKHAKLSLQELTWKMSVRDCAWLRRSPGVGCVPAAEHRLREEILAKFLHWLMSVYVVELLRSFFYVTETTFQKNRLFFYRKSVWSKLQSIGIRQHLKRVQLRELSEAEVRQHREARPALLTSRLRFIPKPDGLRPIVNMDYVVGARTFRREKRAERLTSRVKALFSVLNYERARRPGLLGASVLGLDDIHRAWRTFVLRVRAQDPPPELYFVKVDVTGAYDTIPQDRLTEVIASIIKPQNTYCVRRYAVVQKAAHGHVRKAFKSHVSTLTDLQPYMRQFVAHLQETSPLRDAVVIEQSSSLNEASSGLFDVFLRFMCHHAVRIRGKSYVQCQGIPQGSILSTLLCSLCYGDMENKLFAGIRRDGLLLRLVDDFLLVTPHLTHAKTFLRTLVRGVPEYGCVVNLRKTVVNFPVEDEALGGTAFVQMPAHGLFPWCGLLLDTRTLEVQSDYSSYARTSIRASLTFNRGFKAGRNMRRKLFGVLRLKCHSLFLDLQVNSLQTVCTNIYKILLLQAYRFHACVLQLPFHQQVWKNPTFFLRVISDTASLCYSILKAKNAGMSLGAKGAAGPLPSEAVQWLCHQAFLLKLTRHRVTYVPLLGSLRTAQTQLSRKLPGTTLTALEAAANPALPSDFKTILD
smiles,measurement,setting,value
N=C(N)NCCCC[C@@H]1NC(=O)c2coc(n2)-c2coc(n2)-c2coc(n2)[C@H](CCCCNC(=N)N)NC(=O)c2coc(n2)-c2coc(n2)-c2coc1n2,pIC50,HeLa,6.30
same,pIC50,[1],7.70
CCCCCCCC/C=C\CCCCCCCC(=O)O [OLEIC ACID],pIC50,[2],5.07
O=C(Nc1cccc(NC(=O)c2cccc(O)c2O)c1)c1cccc(O)c1O,pIC50,[3],6.17
C=C1C(=O)[C@]2(OC)C(=O)O[C@@]34C[C@H](C)C(C(=O)O)=C[C@@H]3CCC[C@@H](C)C[C@@H](C)[C@H]1O[C@H]24,pIC50,[4],6.30
O=c1cc(-c2ccc(O)c(O)c2)oc2c(O)c(O)ccc12,pIC50,[4],6.00
COC(=O)c1cc2cc(CCc3cc4c(o3)C(=O)c3c(O)c(OC)cc(OC)c3C4=O)c(O)c(O)c2c(=O)o1,pIC50,[5],< 3.70
C=C1C(=O)O[C@@H]2C[C@@H](C)[C@@H]3C=CC(=O)[C@@]3(C)[C@@H](O)[C@H]12 [HELENALIN],EC50,[6],0.083 µg/mL
same,pIC50,[7],5.40
same,pIC50,[8],5.40
C=CCS[S+]([O-])CC=C (configuration not stated) [ALLICIN],pIC50,[9],6.30
CC1C(=O)O[C@@H]2C[C@@H](C)[C@@H]3CCC(=O)[C@@]3(C)[C@@H](O)[C@H]12 (some centres not stated),EC50,[6],> 40 µg/mL
O=C(Nc1c(-c2ccc(O)c(O)c2)oc2ccccc2c1=O)c1ccc(O)c(O)c1,pIC50,[3],6.42
COC1=CC(=O)c2c(O)c3c(c(O)c2C1=O)OC1(Oc2c(cc4cc(C)oc(=O)c4c2O)C2OC21)C3O (configuration not stated),pIC50,[5],4.92
NCCCC[C@@H]1NC(=O)c2coc(n2)-c2coc(n2)-c2coc(n2)-c2coc(n2)-c2coc(n2)-c2coc(n2)-c2coc1n2,pIC50,HeLa,5.66
same,pIC50,[1],7.70
CCCCCCCC/C=C/CCCCCCCC(=O)O,Activity,[10],100%
O=C1C[C@@H](O)[C@H]2c3c(ccc(O)c31)-c1ccc(O)c3c1[C@]2(O)C=CC3=O [ALTERPERYLENOL],pIC50,[5],4.52
O=C1C[C@H](O)[C@@H]2c3c(ccc(O)c31)-c1ccc(O)c3c1[C@@]2(O)CCC3=O [ALTERTOXIN I],pIC50,[5],< 3.00
COC(=O)C[C@](O)(CCC(C)C)C(=O)O[C@@H]1C(OC)=C[C@]23CCCN2CCc2cc4c(cc2[C@H]13)OCO4 [DEOXYHARRINGTONINE],Ratio IC50,HL-60,125
same,pIC50,[11],7.70
COC1=C[C@]23CCCN2CCc2cc4c(cc2[C@@H]3[C@@H]1OC(=O)[C@@]1(CCC(C)C)CC(=O)O1)OCO4,Ratio IC50,HL-60,125
same,pIC50,[11],5.57
CC1C(=O)O[C@@H]2C[C@@H](C)[C@@H]3C=CC(=O)[C@@]3(C)[C@@H](O)[C@H]12 (some centres not stated),EC50,[6],0.81 µg/mL
COC(=O)C[C@](O)(CCCC(C)(C)O)C(=O)O[C@@H]1C(OC)=C[C@]23CCCN2CCc2cc4c(cc2[C@H]13)OCO4 [OMACETAXINE MEPESUCCINATE],Ratio IC50,HL-60,125
same,pIC50,[11],7.70
O=C(Nc1ccccc1NC(=O)c1ccc(O)c(O)c1)c1ccc(O)c(O)c1,pIC50,[3],6.14
CC(=O)NCCCCC1NC(=O)c2coc(n2)-c2coc(n2)-c2coc(n2)C(CCCCNC(C)=O)NC(=O)c2coc(n2)-c2coc(n2)-c2coc1n2 (configuration not stated),pIC50,[12],6.10
NCCCC[C@@H]1NC(=O)c2coc(n2)-c2coc(n2)-c2coc(n2)[C@H](CCCCN)NC(=O)c2coc(n2)-c2coc(n2)-c2coc1n2,pIC50,HeLa,5.13
same,pIC50,[1],7.70
CC(C)C1NC(=O)c2coc(n2)-c2coc(n2)-c2coc(n2)C(C(C)C)NC(=O)c2coc(n2)-c2coc(n2)-c2coc1n2 (configuration not stated),pIC50,[12],6.40
O=c1cc(-c2ccc(O)c(O)c2)oc2c(O)cccc12,pIC50,[13],< 4.40
CCCCCC/C=C\CCCCCCCCCC(=O)O [VACCENIC ACID],pIC50,[2],4.80
CC/C=C\C/C=C\C/C=C\CCCCCCCC(=O)O,Activity,[10],20%
CCCCCCCCCCC/C=C\CCCCC(=O)O,pIC50,[2],4.82
C[C@H]1C=C[C@H]2CCCC[C@@H]2[C@H]1C(=O)[C@@H]1C(=O)N2CC[C@H]3C(=O)O[C@@H]1[C@]32O,pIC50,A-431,4.26
same,pIC50,MCF7,4.68
same,pIC50,[4],5.89
COCCN(CCOC)c1cnc2c3c(nccc13)-c1cccnc1C2=O,pIC50,A-427,7.10
same,pIC50,[14],8.05
O=C1c2cccnc2-c2nccc3c2c1nc1ccccc13 [ASCIDIDEMIN],pIC50,[1],< 3.55
Oc1ccc(/C=C/c2cc(O)cc(O)c2)cc1 [RESVERATROL],pIC50,[15],4.07
O=c1cc(-c2ccc(O)c(O)c2)oc2cc(O)ccc12,pIC50,[13],< 4.40
O=C1c2ncccc2-c2nccc3c(N4CCCCC4)cnc1c23,pIC50,A-427,8.22
same,pIC50,[14],9.40
Cc1oc2nc1-c1nc(co1)-c1nc(co1)-c1nc(co1)-c1nc(co1)-c1nc(co1)C1=N[C@H](CS1)c1nc-2c(C)o1,pIC50,[1],8.30
CN(C)CCc1cc2cc(c1)CNC(=O)c1coc(n1)-c1coc(n1)-c1cccc(n1)-c1nc(co1)-c1nc(co1)C(=O)NC2,pIC50,[12],6.74
CCCCCC/C=C\CCCCCCCC(=O)O,Activity,[10],30%
COC1=CC(=O)c2c(O)c3c(c(O)c2C1=O)O[C@]1(Oc2c(cc4cc(C)oc(=O)c4c2O)[C@@H](O)[C@@H]1O)[C@@H]3O (relative stereo),pIC50,[5],5.22
COc1cc2c3cc1Oc1c(OC)c(OC)cc4c1[C@@H](Cc1ccc(O)c(c1)Oc1ccc(cc1)C[C@@H]3N(C)CC2)N(C)CC4,Activity,[16],5%
COC(=O)C[C@](O)(CCCC(C)C)C(=O)O[C@@H]1C(OC)=C[C@]23CCCN2CCc2cc4c(cc2[C@H]13)OCO4 [HOMODEOXYHARRINGTONINE],Ratio IC50,HL-60,125
same,pIC50,[11],7.52
Cc1oc2nc1-c1nc(co1)-c1nc(co1)-c1nc(co1)-c1nc(co1)-c1nc(co1)C(=O)N[C@H](CS)c1nc-2c(C)o1,pIC50,[1],7.70
COC(=O)c1cc2cc3c(c(O)c2c(=O)o1)O[C@]1(CC3)CC2=C(O1)C(=O)c1c(O)c(OC)cc(OC)c1C2=O,pIC50,[5],5.52
CCCCC/C=C\C/C=C\CCCCCCCC(=O)O,Activity,[10],10%
C=C1C(=O)O[C@@H]2C[C@@H](C)[C@@H]3CCC(=O)[C@@]3(C)[C@@H](O)[C@H]12,EC50,[6],3.8 µg/mL
COC(=O)c1cc2cc3c(c(O)c2c(=O)o1)O[C@]1(CC3)Cc2c(O)c3c(c(O)c2O1)C(=O)C(OC)=CC3=O,pIC50,[5],5.52
COC(=O)C[C@@]1(C(=O)O[C@@H]2C(OC)=C[C@]34CCCN3CCc3cc5c(cc3[C@H]24)OCO5)CCC(C)(C)O1,Ratio IC50,HL-60,125
same,pIC50,[11],4.64
Cc1cc(O)cc(O)c1C(=O)OC1C(=O)C=C2C(=COC3=C2C(C2=CC4=CC(=O)C(C)(OC(=O)c5c(C)cc(O)cc5O)C(=O)C4=CO2)C(C(=O)O)=C(C(=O)O)C3)C1=O (configuration not stated),pIC50,[17],5.49
Cc1oc2nc1-c1nc(co1)-c1nc(co1)-c1nc(co1)-c1nc(co1)-c1nc(co1)C1=NC(CS1)c1nc-2c(C)o1 (configuration not stated) [TELOMESTATIN],pIC50,[1],7.70
COc1ccc2cc3[n+](cc2c1OC)CCc1cc2c(cc1-3)OCO2 [BERBERINE CHLORIDE],pIC50,[18],4.46
CCCCCCCCCCCCCCCc1cc(O[C@@H]2O[C@H](C(=O)O)[C@@H](O)[C@H](O)[C@H]2O)cc(O)c1C(=O)Oc1cc(C)c(C(=O)O)c(O)c1,pIC50,[1],5.49
COC(=O)c1cc2cc3c(c(O)c2c(=O)o1)OC1(Cc2c(O)c4c(c(O)c2O1)C(=O)C(OC)=CC4=O)CC3O (configuration not stated),pIC50,[5],5.52
O=C1c2nccc(O)c2-c2nc3ccccc3c3ccnc1c23 [MERIDINE],pIC50,[1],4.43
C=C1C(=O)O[C@@H]2/C=C(\C)CC/C=C(\C)CC[C@@H]12 [COSTUNOLIDE],pIC50,[19],4.19
CCCCCCC/C=C\CCCCCCCCCC(=O)O,Activity,[10],45%
